Key:
Format in all cases: in vivo
[1] = test system: Abutilon theophrasti (ABUTH); assay: Pre-emergence herbicidal test; conditions: 1000 g/ha, evaluated after 13 days
Zea mays (ZEAMX) [2] = assay: Pre-emergence herbicidal test; conditions: 1000 g/ha, evaluated after 13 days
Zea mays (ZEAMX) [3] = assay: Post-emergence herbicidal test; conditions: 1000 g/ha unless otherwise stated, evaluated after 13 days
How it was run: (§1)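 Spray-applied at 1000 g/ha unless stated, in the glasshouse. Damage rated 13 days later on a 0–5 scale.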

[4] = test system: Echinochloa crus-galli (ECHCG); assay: Post-emergence herbicidal test; conditions: 1000 g/ha unless otherwise stated, evaluated after 13 days
How it was run: as §1

[5] = test system: Ipomoea hederacea (IPOHE); assay: Post-emergence herbicidal test; conditions: 1000 g/ha unless otherwise stated, evaluated after 13 days
How it was run: as §1

[6] = test system: Amaranthus retoflexus (AMARE); assay: Post-emergence herbicidal test; conditions: 1000 g/ha unless otherwise stated, evaluated after 13 days
How it was run: as §1

[7] = test system: Abutilon theophrasti (ABUTH); assay: Post-emergence herbicidal test; conditions: 1000 g/ha unless otherwise stated, evaluated after 13 days
How it was run: as §1

Setaria faberi (SETFA) [8] = assay: Post-emergence herbicidal test; conditions: 1000 g/ha unless otherwise stated, evaluated after 13 days
How it was run: as §1

[9] = test system: Amaranthus retoflexus (AMARE); assay: Pre-emergence herbicidal test; conditions: 1000 g/ha, evaluated after 13 days
[10] = test system: Ipomoea hederacea (IPOHE); assay: Pre-emergence herbicidal test; conditions: 1000 g/ha, evaluated after 13 days
[11] = test system: Echinochloa crus-galli (ECHCG); assay: Pre-emergence herbicidal test; conditions: 1000 g/ha, evaluated after 13 days
Setaria faberi (SETFA) [12] = assay: Pre-emergence herbicidal test; conditions: 1000 g/ha, evaluated after 13 days

With `CCOC(=O)c1nn(-c2ccc(OC(F)(F)F)cc2)c2cc(OC)cc(SC)c2c1=O` [Compound P57, ethyl 7-methoxy-5-methylsulfanyl-4-oxo-1-[4-(trifluoromethoxy)phenyl]cinnoline-3-carboxylate] the “percentage damage caused to the plant, five-point scale, ABUTH” value [1] was 0 (0=0%), the “percentage damage caused to the plant, five-point scale, ZEAMX” value (Zea mays (ZEAMX) [2]) was 0 (0=0%) and the “percentage damage caused to the plant, ZEAMX (five-point scale)” value (Zea mays (ZEAMX) [3]) was 0 (0=0%). The “percentage damage caused to the plant, ECHCG (five-point scale)” value [4] was 1 (1=10-20%), the “percentage damage caused to the plant, IPOHE (five-point scale)” value [5] was 0 (0=0%) and the “percentage damage caused to the plant, AMARE (five-point scale)” value [6] was 0 (0=0%). The “percentage damage caused to the plant, ABUTH (five-point scale)” value [7] was 0 (0=0%), the “percentage damage caused to the plant, SETFA (five-point scale)” value (Setaria faberi (SETFA) [8]) was 1 (1=10-20%) and the “percentage damage caused to the plant, five-point scale, AMARE” value [9] was 0 (0=0%). The “percentage damage caused to the plant, five-point scale, IPOHE” value [10] was 0 (0=0%), the “percentage damage caused to the plant, five-point scale, ECHCG” value [11] was 0 (0=0%) and the “percentage damage caused to the plant, five-point scale, SETFA” value (Setaria faberi (SETFA) [12]) was 0 (0=0%).

In the case of `CCOC(=O)c1nn(-c2ccc(OC(F)(F)F)cc2)c2ccc(Br)c(S(C)(=O)=O)c2c1=O` [Compound P10, ethyl 6-bromo-5-methysulfonyl-4-oxo-1-[4-(trifluoromethoxy)phenyl]cinnoline-3-carboxylate], the “percentage damage caused to the plant, five-point scale, ABUTH” value [1] is reported as 1 (1=10-20%), the “percentage damage caused to the plant, five-point scale, ZEAMX” value (Zea mays (ZEAMX) [2]) is reported as 0 (0=0%) and the “percentage damage caused to the plant, ZEAMX (five-point scale)” value (Zea mays (ZEAMX) [3]) is reported as 1 (1=10-20%). The “percentage damage caused to the plant, ECHCG (five-point scale)” value [4] was 1 (1=10-20%), the “percentage damage caused to the plant, IPOHE (five-point scale)” value [5] was 0 (0=0%) and the “percentage damage caused to the plant, AMARE (five-point scale)” value [6] was 1 (1=10-20%). For the same compound, the “percentage damage caused to the plant, ABUTH (five-point scale)” value [7] was 1 (1=10-20%), the “percentage damage caused to the plant, SETFA (five-point scale)” value (Setaria faberi (SETFA) [8]) was 1 (1=10-20%) and the “percentage damage caused to the plant, five-point scale, AMARE” value [9] was 1 (1=10-20%). The “percentage damage caused to the plant, five-point scale, IPOHE” value [10] was 0 (0=0%), the “percentage damage caused to the plant, five-point scale, ECHCG” value [11] was 0 (0=0%) and the “percentage damage caused to the plant, five-point scale, SETFA” value (Setaria faberi (SETFA) [12]) was 1 (1=10-20%).

For `CCOC(=O)c1nn(-c2ccc(OC(F)(F)F)cc2)c2cccc(SC3CC3)c2c1=O` [Compound P33, ethyl 5-cyclopropylsulfanyl-4-oxo-1-[4-(trifluoromethoxy)phenyl]cinnoline-3-carboxylate], the “percentage damage caused to the plant, five-point scale, ABUTH” value [1] was 0 (0=0%), the “percentage damage caused to the plant, five-point scale, ZEAMX” value (Zea mays (ZEAMX) [2]) was 0 (0=0%) and the “percentage damage caused to the plant, ZEAMX (five-point scale)” value (Zea mays (ZEAMX) [3]) was 0 (0=0%). The “percentage damage caused to the plant, ECHCG (five-point scale)” value [4] was 0 (0=0%), the “percentage damage caused to the plant, IPOHE (five-point scale)” value [5] was 0 (0=0%) and the “percentage damage caused to the plant, AMARE (five-point scale)” value [6] was 0 (0=0%). For the same compound, the “percentage damage caused to the plant, ABUTH (five-point scale)” value [7] was 1 (1=10-20%), the “percentage damage caused to the plant, SETFA (five-point scale)” value (Setaria faberi (SETFA) [8]) was 0 (0=0%) and the “percentage damage caused to the plant, five-point scale, AMARE” value [9] was 0 (0=0%). For the same compound, the “percentage damage caused to the plant, five-point scale, IPOHE” value [10] was 0 (0=0%), the “percentage damage caused to the plant, five-point scale, ECHCG” value [11] was 1 (1=10-20%) and the “percentage damage caused to the plant, five-point scale, SETFA” value (Setaria faberi (SETFA) [12]) was 2 (2=21-40%).

— patent US20230250066A1, “HERBICIDAL CINNOLINE DERIVATIVES” (SYNGENTA CROP PROTECTION AG, priority 2020, published 2023)
